Test results as given in article PMC9088669 (Journal of Medical Virology, 2022).
Where two headings read alike, the source gives them in different places.

How the values were obtained:
SARS‐CoV‐2 [1] = details: previously found; cited from earlier work
SARS‐CoV‐2 [2] = details: read-out: EC50 reported in previous studies (range); cited from earlier work
SARS‐CoV‐2/FFM1 [3] = test: microbe, parasite or virus in culture; details: Severe acute respiratory syndrome coronavirus 2, Caco-2, 48 h, read-out: EC50 visual CPE
SARS‐CoV‐2/FFM1 [4] = test system: SARS‐CoV‐2/FFM1

Structure (SMILES)	EC50 (SARS‐CoV‐2/FFM1 [3]) [µM]	further results
CCN(CCO)CCCC(C)Nc1ccnc2cc(Cl)ccc12 (stereo not shown) [Hydroxychloroquine]		activity in SARS‐CoV‐2–infected Caco‐2 cells (SARS‐CoV‐2 [1]): inactive
CCC(CC)COC(=O)[C@H](C)N[P@](=O)(OC[C@H]1O[C@@](C#N)(c2ccc3c(N)ncnn23)[C@H](O)[C@@H]1O)Oc1ccccc1 [Remdesivir]	1.3	EC50 (SARS‐CoV‐2 [2]): 0.77 to 7.28 µM
COc1cccc2c1C(=O)c1c(O)c3c(c(O)c1C2=O)C[C@@](O)(C(=O)CO)C[C@@H]3O[C@H]1C[C@H](N)[C@H](O)[C@H](C)O1 [Doxorubicin]	12	
CCN(CC)CCCC(C)Nc1ccnc2cc(Cl)ccc12 (stereo not shown) [Chloroquine]		activity in SARS‐CoV‐2–infected Caco‐2 cells (SARS‐CoV‐2 [1]): inactive
Cc1c(O)cccc1C(=O)N[C@@H](CSc1ccccc1)[C@H](O)CN1C[C@H]2CCCC[C@H]2C[C@H]1C(=O)NC(C)(C)C [Nelfinavir]	8.1	
O=C(NC1CN2CCC1CC2)c1cc(Cl)cc2c1OC1CCCCC21 (stereo not shown) [RG‐12915]		EC50 (SARS‐CoV‐2/FFM1 [4]; read-out: EC50 visual CPE): 12 µM
CCN(CC)CCNC(=O)c1ccc(NS(C)(=O)=O)cc1 [Sematilide]	> 100	antiviral activity in Caco‐2 cells (SARS‐CoV‐2/FFM1 [4]; Caco‐2 cells, SARS‐CoV‐2/FFM1): not active
CCC(C)n1ncn(-c2ccc(N3CCN(c4ccc(OCC5COC(Cn6cncn6)(c6ccc(Cl)cc6Cl)O5)cc4)CC3)cc2)c1=O (stereo not shown) [Itraconazole]	1.6	
